Several values for one entry are separate records, joined by “and”; a condition that tells them apart may be missing. Equal entries are not always repeated.
Columns and labels:
[1] = tested on: RAT-1 fibroblasts transfected with α1B -ADR c-DNA; assay: Focus formation in RAT-1 fibroblasts transfected with α1B-ADR c-DNA; assay type: cell-based
Method: Transfection was carried out as follows: RAT-1 fibroblasts were seeded at a density of 2×10^5 cells in Dulbecco's modified Eagle's medium (DMEM) (Gibco) containing 5% fetal bovine serum (FBS) in 100 mm dishes. […] After 16 hours, the DNA precipitate was removed, the cells washed and grown for 24 hours in complete medium. Cells were split 1:5, allowed to attach overnight and then cultured in DMEM with 5% FBS alone, supplemented with 10 μM norepinephrine (NE) or G418 (300 μg/ml). Dishes were supplemented with NE daily, and fed every 3 days with fresh medium.

[2] = NE stimulated PI hydrolysis in RAT-1 cell lines transfected with vector alone; assay type: cell-based; settings: 40 min, 10 μM NE, 40 minute, two clones, read-out: NE Stimulated PI Hydrolysis Rmax
Source text: In cell lines expressing the α1B -ADR mutant, NE induced a 900 to 1000% increase in inositol phosphates (Table 3); this level of PI hydrolysis was only seen in cells expressing the wild type receptor with a two fold higher level of receptor expression. […] The α1B -ADR, appearing on the surface of RAT-1 fibroblasts following transfection, therefore, functionally couples to PI hydrolysis in these cells. Whether receptor coupling to PLC actually mediates the α1B -ADR's ability to induce malignant transformation in these cells, however, remains speculative. Coupling of this receptor to alternate G proteins or effector systems may be responsible for triggering uncontrolled cell proliferation.
In Table 3, RAT-1 fibroblast cell lines transfected with expression vector alone or derived from transformed foci (α1B ADR or α1B ADR mutant) were selected with G418 (300 μg/ml). Ligand binding was performed on membranes prepared from two clones of each in accordance with known techniques (S. Cotecchia et al., Life Sci. 37, 2389 (1986)). For saturation binding analysis, [^125 ] HEAT concentrations ranged from 10 to 500 pM, nonspecific binding was determined using 1 μM prazosin; in competition experiments, the radioligand concentration was 100 pM. Ligand binding parameters were determined using computerized iterative nonlinear regression analysis (P. Munson, Methods in Enzymol. 92, 5432 (1983)). […]

Question: For `NC[C@H](O)c1ccc(O)c(O)c1` [NE, norepinephrine], which “Agonist-induced foci as share of transfected clones” value ([1]; RAT-1, relative to number of G418 resistant colonies (40-60/dish)) is on record?
Answer: 15-25%

Question: And the “Foci No. +NE” value ([1]; RAT-1 transfected with α1B ADR, 10 μM NE supplemented daily, 5% FBS, initially transfected cells (Table 1))?
Answer: 8

Question: What about the “Foci No. +NE” value ([1]; focus derived RAT-1 cell lines, α1B ADR, 10 μM NE, 3 weeks of growth, two clones (Table 2)) of the same compound?
Answer: 75 and 80

Question: And the activation at 10 µM [2]?
Answer: 0%

— US5573908A, “Adrenergic receptor as a proto-oncogene” (Duke University, priority 1993, dated 1996)
